In ChEMBL document CHEMBL1150549, “Synthesis and antifungal activity of new azole derivatives containing an oxathiane ring” (1996):
≈ marks a conversion by molar mass, not a printed value.

Experiments:
Type in all cases: functional
Mus musculus [1] = test: In vivo antifungal activity against Candida albicans in mice at a dose of 10 mg/kg upon oral administration
Aspergillus fumigatus = test: In vitro antifungal activity against Aspergillus fumigatus MTU6001
Mus musculus [2] = test: In vivo antifungal activity against Aspergillus fumigatus in mice at a dose of 50 mg/kg upon oral administration
Candida albicans = test: In vitro antifungal activity against Candida albicans KB-8
Mus musculus [3] = test: In vivo antifungal activity against Aspergillus fumigatus in mice at a dose of 100 mg/kg upon oral administration

Compound	Mean survival days (Mus musculus [1]) [days]	MIC (Aspergillus fumigatus) [µg/mL]	Mean survival days (Mus musculus [2]) [days]	MIC (Candida albicans) [µg/mL]	Mean survival days (Mus musculus [3]) [days]
CC1COC(Cn2cncn2)(c2ccc(F)cc2F)C(C)(C)S1(=O)=O (single isomer, unassigned)	10	12.5 (≈ 33.7 µM)	9.4	0.39 (≈ 1.05 µM)	–
CC1(C)SCCOC1(Cn1cncn1)c1ccc(F)cc1F (single isomer, unassigned)	8.6	3.13 (≈ 9.62 µM)	9.8	0.1 (≈ 0.307 µM)	–
C[C@@H]1SCCOC1(Cn1cncn1)c1ccc(F)cc1F (single isomer, unassigned)	2	25 (≈ 80.3 µM)	1.9	0.1 (≈ 0.321 µM)	–
CC1(C)C(Cn2cncn2)(c2ccc(F)cc2F)OCCS1(=O)=O (single isomer, unassigned)	9.4	100 (≈ 280 µM)	10	3.13 (≈ 8.76 µM)	–
C[C@H]1C(Cn2cncn2)(c2ccc(F)cc2F)OCCS1(=O)=O (single isomer, unassigned)	1.2	> 100	1.8	3.13 (≈ 9.12 µM)	–
C[C@@H]1C(Cn2cncn2)(c2ccc(F)cc2F)OCCS1(=O)=O (single isomer, unassigned)	6.9	> 100	1.1	6.25 (≈ 18.2 µM)	–
C[C@H]1SCCOC1(Cn1cncn1)c1ccc(F)cc1F (single isomer, unassigned)	4.9	50 (≈ 161 µM)	1.5	0.2 (≈ 0.642 µM)	–
OC(Cn1cncn1)(Cn1cncn1)c1ccc(F)cc1F [FLUCONAZOLE]	10	400 (≈ 1310 µM)	–	0.78 (≈ 2.55 µM)	2.8
C[C@H]([C@](O)(Cn1cncn1)c1ccc(F)cc1F)S(C)(=O)=O [GENACONAZOLE]	10	25 (≈ 75.5 µM)	10	0.39 (≈ 1.18 µM)	–
